Results as given in US10406217B2, “Antifugetactic agents for the treatment of cancers” (The General Hospital Corporation, priority 2004, dated 2019).
Where two headings read alike, the source gives them in different places.

Experiments:
CXCR4 [1] = molecular target: T1, CXCR4 (Mus musculus, UniProt P70658); conditions: Matthys et al. 2001; cited from earlier work
CXCR4 [2] = molecular target: T1, CXCR4; conditions: 48 hours
Description: (§1) In some experiments, activated OT-I CD8+ T cells were also preincubated with the CXCR4 antagonist, AMD3100, at concentrations of 0.08 and 0.25 μg/ml (15 min at RT) in a 12-well plate at a density of 1×10^7 cells/well prior to adoptive transfer (Hatse, S., et al. 2002, FEBS Lett 527:255). Survival analysis was evaluated in mice after in vivo generation of a tumor-specific memory T cell compartment (Bathe, O. F., et al. 2001, J Immunol 167:4511). 21 days after adoptive transfer of 1×10^7 OT-I CD8+ T cells (in 500 μl of HBSS via tail vein injection), two groups of mice (4 or 6 per group) were challenged s.c. in the right flank with 2×10^5 B 16/OVA.SDF-1-high cells or B16/OVA.MSCV control cells in 200 μl of HBSS using a 27 G needle (Bathe, O. F., et al. 2001, J Immunol 167:4511). […] Detectable tumor was considered to be >5 mm^2. Mice were sacrificed when tumors reached 400 mm^2 in size.
Immunized mice and mice that received adoptive transfer of OT-I CD8+ T-cells were evaluated for T cell infiltration of tumors by immunohistochemistry. Animals were sacrificed and tumors excised with preservation of the capsule. Resected tumors were fixed in 10% neutral buffered formalin and embedded in paraffin. Serial 5 μm sections of tumors were stained with H & E or with polyclonal anti-CD3 Ab or isotype control Ab, followed by incubation with secondary HRP-labeled anti-rabbit Dako EnVision Ab (DakoCytomation). T-cell infiltration was quantified by counting four random 200× field powers of the turner sections, each […] in area.

CXCR4 [3] = molecular target: T1, CXCR4; conditions: OT-I preincubated with AMD3100 5 μg/ml; flat-bottom wells; SIINFEKL-pulsed targets; ±SEM
Description: Cytotoxicity of OT-I CD8+ cells was measured in a standard ^51Cr-release assay in round-bottom, wells as previously described (Brainard, D. M, et al. 2004. J Virol 78:5184-5193). The assay was also modified and performed in flat-bottom wells in order to determine the effects of CTL migration on killing efficacy in the context of target cells expressing SDF-1 (Hahne, M., et al. 1996 Science 274:1363-1366). B16/OVA.MSCV or B16/OVA.SDF1-high target cells were labeled with 100 μCi of ^51CR per 10^6 cells for 1 hour at 37° C. […] 30 μl of supernatant were harvested, and the radioactivity was counted in a γ-radiation counter. Cytotoxicity was expressed either as percent of lysis or as Lytic Unit 30 (LU30) as previously described (Brainard, D. M., et al. 2004. J Virol 78:5184-5193, Bryant, J., et al. 1992. J Immunol Meth 146:91-103). ^51Cr release assays were also performed in flat-bottom cells after preincubation of OT-I CD8+ T cells with the CXCR4 antagonist AMD3100 at concentrations of 0.25 and 1 μg/ml (Hatse, S. 2002 FEBS LETT 527:255-262).

CXCR4 [4] = molecular target: T1, CXCR4; conditions: B16/OVA.MSCV vs B16/OVA.SDF-1-high tumor, OT-I T-cells incubated with AMD3100 0.08 and 0.25 μg/ml before adoptive transfer, MRI 24 hours, mean±SD, n=3
Description: as §1

CXCR4 [5] = molecular target: T1, CXCR4
Source text: Pregnant females at day 15.5 of gestation were sacrificed by CO2 asphyxiation, and embryos were chilled on ice. Fetal thymuses were carefully removed under a dissecting microscope, taking care to keep the anatomically identifiable lobes joined together. Thymuses were placed in HBSS and kept on ice. Individual thymuses were gently transferred onto the surface of a polycarbonate membrane of a 6.5 mm transwell insert with a 3.3 μm pore size (Corning Incorporated Life Sciences Action, Mass.). DMEM (360 μl) supplemented with 2 mM glutamine, 100 U/ml penicillin, 100 μg/ml streptomycin, 2×10^5 M 2-mercaptoethanol, 0.1 mM non-essential amino acids, 10% HEPES, and 10% FBS (Sigma) was added to the lower chamber of the transwell. This amount of medium allowed the thymus to be at the interface of medium and air. The cultures were incubated at 37° C., in 5% CO2, and medium was replaced every 3 days. Thymic emigrants, were collected from each thymus by transferring each transwell insert containing one thymus onto to a new well 24 hours before harvesting emigrant present in the lower chamber for analysis. On the day of analysis, two thymuses were harvested, and emigrants were pooled from at least 4 thymic lobes from CXCR4^+/− CXCR4^−/− mice. For each time-point, CXCR4^+/− and CXCR4^−/− thymuses from one or two pregnant females bred at the same time were analyzed, aiming to minimize differences in the stage of maturation and total cell recovery. E15.5 WT (CXCR4^+/+) thymuses were obtained from fetuses from C57BL/16 mice breedings. […] FTOC from DPC 15.5 CXCR4+/− or CXCR4−/−embryos were also prepared as above, and AMD3100 (0.5 or 1 gg/ml; Sigma) was added to the lower chamber of day 14 FTOC.
Thymic lobes were harvested and transferred to a 4-ml round bottom polystyrene tube containing 0.4 mg/ml collagenase (from Clostridium histolyticum, type V, clostridiopeptidase A, SIGMA Chemicals), 10% FBS, EDTA0.2 mg/ml and 0.2 M phosphate. After 30 minutes incubation at 37° C., thymuses were disaggregated by gentle pipetting until no visible fragments remained. Cell suspensions were washed once in HBSS and 10% FBS to prevent further enzyme action. Cells were resuspended in PBS containing 0.1% bovine serum albumin and counted using a hemocytometer. After incubation for 30 minutes on ice with 0.5 gg of 2.4G2 antibody to block Fc binding, direct staining for three or four color analysis was performed. Cell suspensions were incubated for 15 minutes at 4° C. and then washed twice with staining buffer and analyzed using a FACSCalibur (BD Biosciences). Data analysis was performed with FlowJo software (Tree Star, Inc. Ashland, Oreg.). […] For annexin V and PI staining, an Annexin V-FITC Apoptosis Detection Kit I was used (BD Pharmingen). […] Mean log fluorescence intensity (MFI) values were obtained by subtracting the MFI of the isotype control from the MFI of the positively stained sample. To evaluate whether the differences between the peaks of cells were statistically significant with respect to controls, the Kolmogorov-Smirnov test for analysis of histograms was used.

CXCR4 [6] = molecular target: T1, CXCR4; conditions: T-cells pre-incubated with 5 μg/ml AMD3100 for 30 min; 15 hours incubation
Description: The CXCR4 receptor was blocked by pre-incubation of T-cells with 5 μg/ml AMD3100 (Sigma, St. Louis, Mo.) for 30 min at 37° C. as previously described (70). Trajectories of migration were determined for randomly selected T-cells using Metamorph software. Cell path tracking and mean chemotropic indices (MCI) as a measurement of directionality of movement towards or away from β-TC3 cells were calculated using MetaMorph and MatLab software as previously described where an MCI of +0.1 to −0.1 indicates chemokinesis, >+0.1 indicates chemotaxis and <−0.1 indicates fugetaxis (Moghe, P. V., et al. 1995 J Immunol Methods 180, 193-211; McCutcheon, M. (1946) Physiological Reviews 26, 319).

B16/OVA.MSCV tumors = conditions: naïve mice, AMD3100 1.25 mg/kg s.c. twice a day from first day after challenge, average±SD
Description: (§2) For in vitro growth, 5×10^5 tumor cells were seeded in T25 flasks (Becton Dickinson, Le Pont De Claix, France). Cultures were harvested daily for 3 consecutive days and viable cell yield determined. Tumorigenicity was determined by subcutaneous (s.c.) injection of 2×10^5 viable cells into the flank of mice in a total volume of 200 μl PBS using a 27 G needle. Tumor growth was also evaluated in naïve mice challenged with B16/OVA.MSCV or B16/OVA.SDF-1-high cells and injected twice a day s.c. with the CXCR4 antagonist. AMDS3100 (1.25 mg/kg s.c., Sigma). Tumor growth was measured every three or four days using a caliper. Tumor volume was recorded as the product of two orthogonal diameters (axb; a=longest diameter; b-orthogonal width) (Hanson, J. L., et al. 2000 Immunity 13:265-276). In immunization studies, mice were injected s.c. (at multiple sites) with 1×10^5 Irradiated (8568 cGy) B16/OVA.pc cells in a volume of 200 μl at d 0 and d 10. Fourteen days after immunization, mice were challenged s.c. in both flanks with 2×10^5 B16/OVA.MSCV B16/OVA.SDF-1 high cells, and tumor growth was measured as described above (Dranoff, G., et al. 1993 Proc Natl Acad Sci USA 90:3539-3543). In some experiments, mice were immunized with B16/OVA.SDF-1-high cells and then challenged with B16/OVA.SDF-1-high or B16/OVA.SDF-1-low cells. Mice were sacrificed when one or both tumors reached 200 mm^2 in volume.

[7] = system: B16/OVA.SDF-1-high tumors; conditions: naïve mice, AMD3100 1.25 mg/kg s.c. twice a day, average±SD
Description: as §2

Protein Kinase C = experiment: Microfluidic migration assay of neutrophils in linear IL-8 gradients (mean chemotropism index); assay type: cell-based, Human; conditions: 25 μM pretreatment; IL-8 gradient in which fugetaxis is predominant (600 nM to 1.2 μM); p=0.0001
Source text: Human whole blood was obtained from healthy volunteers by venipuncture into tubes-containing sodium heparin (Becton Dickinson, San Jose, Calif.). Neutrophils were isolated by density gradient centrifugation and purified by hypotonic lysis, as previously described (Tager, A. M., et al. 1998. Am J Respir Cell Mol Biol 19:643-52).
The microfluidic linear gradient generators were fabricated in poly(dimethylsiloxane) (PMDS; Sylgard 184, Dow Corning, N.Y.), and gradient generation was verified with fluorescin isothiocyanate (FITC; Sigma-Aldrich), as previously described (Li Jeon, N., et al. 2002. Nat Biotechnol 20:826-30; Whitesides, G. M., et al. 2001. Annu Rev Biomed Eng 3:335-73), […]
Cell movement was tracked using MetaMorph 4.5 (Universal Imaging, Dowington, Pa.) object tracking application, which generated tables of Cartesian coordinate data for each cell. Tracking data was analyzed in Excel (Microsoft, USA) and MATLAB 13 (The Mathworks, Inc., Newton, Mass.) to determine angular frequencies, mean squared displacements, migration velocities, persistence times, random motility coefficients, and random walk path lengths. […] For each cell, the squared displacement R(t) was calculated at time interval t, R^2(t)=(x(t0+t)−x(t0))^2+(y(t0+t)−y(t0))^2, (1) where t0 is the time at the origin. […]

[8] = system: Primary human neutrophils; experiment: Calcium flux in neutrophils in response to IL-8 (Fura-2); assay type: cell-based; conditions: calibrated against 5 μM ionomycin
Description: (§3) Calcium flux in neutrophils in response to IL-8 was measured as previously described (Mahon M. J., et al. 2004 J Biol Chem 279:23550-8). Briefly, isolated cells (˜10^7/ml) were transferred into a balanced salt solution (127 mM NaCl, 3.8 mM KCl, 1.2 mM KH2PO4, 1.2 mM CaCl2, 0.9 mM MgCl2, 5 mM glucose, and 10 mM HEPES, pH 7.4), incubated for 45 min at room temperature with 1.25 μM Fura-2 acetoxymethyl ester (Molecular Probes, Eugene, Oreg.), washed with the balanced salt solution, and unloaded for 15 min at room temperature. […] Calcium flux in response to indicated concentrations of IL-8 (Akahoshi T., et al. 1994 Lymphokine Cytokine Res 13:113-6) was measured by fluorescence of cells excited at 340 and 380 nm using a PTI Deltascan dual-wavelength fluorimeter (Photon Technologies Incorporated, Lawrenceville, N.J.), observed through a Nikon Diaphot 200 microscope (Melville, N.Y.) and Sensys charge-coupled device camera (Photometrics, Ltd., Tucson, Ariz.), and analyzed using the Poenie-Tsien ratio with Imagemaster 2 software (Photon Technologies Incorporated). Signaling responses to IL-8 at designated concentrations were calibrated against maximal calcium flux as determined by treatment with 5 μM ionomycin (Sigma). CXCR2 expression on neutrophils pre- and post-exposure to 120 nM, 1.2 μM and 2.4 μM IL-8 was determined using PE-labelled anti-CXCR2 IgGl antibody (R & D systems). […]

CXCR2 = CXCR2 staining of neutrophils following IL-8 exposure; assay type: cell-based, Human; conditions: single pulse of IL-8 at 12 nM, 120 nM, 1.2 μM and 2.4 μM; data not shown
Description: as §3

[9] = OT-I CD8+ T-cells incubated with 0.08 μg/ml AMD3100 before adoptive transfer
[10] = OT-I CD8+ T-cells incubated with 0.25 μg/ml AMD3100 before adoptive transfer

T1 sequence (P70658 whole entry): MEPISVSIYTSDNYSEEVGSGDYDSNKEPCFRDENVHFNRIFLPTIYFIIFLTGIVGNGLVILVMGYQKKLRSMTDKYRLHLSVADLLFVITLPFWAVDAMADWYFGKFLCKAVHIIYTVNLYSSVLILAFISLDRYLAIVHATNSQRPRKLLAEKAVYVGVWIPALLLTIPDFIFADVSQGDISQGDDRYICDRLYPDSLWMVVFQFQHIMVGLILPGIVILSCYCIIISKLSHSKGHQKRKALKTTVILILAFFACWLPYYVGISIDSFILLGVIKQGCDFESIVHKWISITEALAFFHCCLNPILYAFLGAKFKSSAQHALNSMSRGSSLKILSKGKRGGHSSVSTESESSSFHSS

For `c1cc(CN2CCCNCCNCCCNCC2)ccc1CN1CCCNCCNCCCNCC1` [AMD3100], the “intracellular Ca+ flux and chemotactic responses of murine splenocytes to SDF1” value (CXCR4 [1]) is given as “inhibit”, the “CD3+ T-cell infiltration into B16/OVA.SDF-1-high tumors” value (CXCR4 [2]; [9]) is given as 101±10.6 cells/mm^2 and the “number of T-cells infiltrating B16/OVA.MSCV tumors” value (CXCR4 [2]; [9]) is given as 109±3.2 cells/mm^2. For the same compound, the “CD3+ T-cell infiltration into B16/OVA.SDF-1-high tumors” value (CXCR4 [2]; [10]) was 88.1±16.9 cells/mm^2, the “number of T-cells infiltrating B16/OVA.MSCV tumors” value (CXCR4 [2]; [10]) was 93±14.8 cells/mm^2 and the “LU30, killing of B16/OVA.SDF-1-high cells by OT-I CD8+ T-cells” value (CXCR4 [3]) was 77×10^6±15. The “ratio of T2 fit value in the right and left tumors” value (CXCR4 [4]) was 1+0.12, the “ratio of T2 fit value in the right and left tumors” value (CXCR4 [4]; listed as AM3100) was 0.55±0.13 and the “total number of cells in the thymus” value (CXCR4 [5]; day 14 FTOC incubated 24 hours with 1 μg/ml AMD3100) was 349±99.5 ×10^3/lobe. The “SP CD4 thymocytes emigrating from thymus” value (CXCR4 [5]; day 14 FTOC, 24 hours with 1 μg/ml AMD3100, mean±SEM) was 1.1±0.15 ×10^3/love, the “CD62L^high CD4 SP cells in the thymus vs untreated” value (CXCR4 [5]; day 14 FTOC, 24 hours with 1 μg/ml AMD3100, p=0.017) was “retention of CD62L^high CD4 SP cells in the thymus” and the “CD62L expression by SP CD8 thymocytes” value (CXCR4 [5]; day 14 FTOC, 24 hours with 1 μg/ml AMD3100, p=0.56) was “not affected”. For the same compound, the “total number of SP CD8 emigrants vs untreated FTOC” value (CXCR4 [5]; day 14 FTOC, 24 hours with 1 μg/ml AMD3100, p=0.93) was “did not differ”, the “T-cell migration away from SDF-1 secreting MSCV.SDF-1 bright cells” value (CXCR4 [6]) was “failed to migrate away from SDF-1 secreting cells” and the “average time to tumor growth to a size of 200 mm^2” value (B16/OVA.MSCV tumors) was 22 ± 2 days. The “time for tumor growth to 200 mm^2” value [7] was 23.6 ± 2.08 days.

In the case of `CN(C)CCCn1cc(C2=C(c3c[nH]c4ccccc34)C(=O)NC2=O)c2ccccc21` [GF 109230X], the “effect on neutrophil fugetaxis in IL-8 gradient” value (Protein Kinase C) is reported as “selectively inhibited fugetaxis and converted a fugetactic response into a predominantly chemoattraction response”.

With “IL-8: human Interleukin-8 (72 amino acids; PeproTech), chemokine” the “Peak calcium flux response (percentage of maximal calcium flux)” value ([8]; 120 nM IL-8) was 48%+/−5.1, the “Peak calcium flux response (percentage of maximal calcium flux)” value ([8]; 1.20 μM IL-8) was 83%+/−7.9 and the “reduction of CXCR2 mean fluorescent intensity from baseline” value (CXCR2) was 2- to 3 fold.
